The record followed here is US8283361B2 (AstraZeneca AB, priority 2008, dated 2012).

By inhibition is commonly meant the change of the read-out against control, counted positive when it falls.

This test deals with S. aureus GyrB ATPase (Staphylococcus aureus, UniProt P0A0K8). Put plainly: biochemical. The settings on record: compound at 1 μM; one value per test if tested more than once; read-out: % Inhibition of S. aureus GyrB ATPase. Summed up: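 IC50 values derive from 10-point titrations of compound (in DMSO). Phosphate formed from 250 μM ATP was quantified by acidic molybdate/malachite green after quenching.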
Chain of S. aureus GyrB ATPase (P0A0K8 whole entry): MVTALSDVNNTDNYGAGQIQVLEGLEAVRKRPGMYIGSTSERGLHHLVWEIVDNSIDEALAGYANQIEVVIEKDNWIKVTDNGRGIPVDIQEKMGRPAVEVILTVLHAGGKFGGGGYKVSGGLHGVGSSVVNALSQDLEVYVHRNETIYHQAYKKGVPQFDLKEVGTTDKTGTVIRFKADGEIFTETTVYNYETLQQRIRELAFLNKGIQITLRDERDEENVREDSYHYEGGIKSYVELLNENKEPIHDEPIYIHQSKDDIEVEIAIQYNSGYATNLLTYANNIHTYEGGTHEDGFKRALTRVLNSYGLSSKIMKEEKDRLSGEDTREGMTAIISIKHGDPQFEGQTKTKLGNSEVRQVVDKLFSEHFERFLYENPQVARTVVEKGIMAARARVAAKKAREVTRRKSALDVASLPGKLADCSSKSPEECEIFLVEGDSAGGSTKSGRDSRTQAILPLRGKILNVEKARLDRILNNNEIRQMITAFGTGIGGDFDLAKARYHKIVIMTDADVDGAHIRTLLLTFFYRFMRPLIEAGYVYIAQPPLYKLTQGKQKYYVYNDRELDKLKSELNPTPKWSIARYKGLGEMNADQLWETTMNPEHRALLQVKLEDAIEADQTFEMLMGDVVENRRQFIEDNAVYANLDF
Chain of S. aureus GyrB ATPase (P0AES4 whole entry, further chain): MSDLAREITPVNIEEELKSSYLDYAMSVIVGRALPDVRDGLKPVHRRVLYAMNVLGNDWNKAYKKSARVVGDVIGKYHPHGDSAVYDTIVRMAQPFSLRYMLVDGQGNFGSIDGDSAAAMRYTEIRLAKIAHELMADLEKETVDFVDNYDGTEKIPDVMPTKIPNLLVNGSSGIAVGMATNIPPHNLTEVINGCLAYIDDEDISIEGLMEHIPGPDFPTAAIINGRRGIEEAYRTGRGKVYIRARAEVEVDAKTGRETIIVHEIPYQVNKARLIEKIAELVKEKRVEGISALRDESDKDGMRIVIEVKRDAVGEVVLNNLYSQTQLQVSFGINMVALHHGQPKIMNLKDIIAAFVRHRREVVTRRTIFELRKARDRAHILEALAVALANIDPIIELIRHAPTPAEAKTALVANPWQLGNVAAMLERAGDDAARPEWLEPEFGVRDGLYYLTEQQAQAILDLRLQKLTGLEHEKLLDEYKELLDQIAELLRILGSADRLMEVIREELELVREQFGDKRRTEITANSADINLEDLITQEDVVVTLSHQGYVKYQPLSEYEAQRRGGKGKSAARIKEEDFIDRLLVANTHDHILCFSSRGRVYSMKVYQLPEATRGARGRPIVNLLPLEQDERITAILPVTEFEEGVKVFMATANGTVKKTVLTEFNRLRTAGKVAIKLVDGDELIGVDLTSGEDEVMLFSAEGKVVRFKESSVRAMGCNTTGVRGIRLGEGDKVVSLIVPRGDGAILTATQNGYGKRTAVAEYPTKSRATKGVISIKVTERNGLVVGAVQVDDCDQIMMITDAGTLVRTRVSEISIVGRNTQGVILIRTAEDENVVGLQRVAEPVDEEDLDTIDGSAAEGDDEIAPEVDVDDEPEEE

With `CCNC(=O)Nc1cc(-c2nc(C(F)(F)F)cs2)c(-c2ccc3c(=O)c(C(=O)NCCN(C)C)cn(CC)c3c2)cn1` [Example 332, N-[2-(dimethylamino)ethyl]-1-ethyl-7-{6-[(ethylcarbamoyl)amino]-4-[4-(trifluoromethyl)-1,3-thiazol-2-yl]pyridin-3-yl}-4-oxo-1,4-dihydroquinoline-3-carboxamide], the inhibition at 1 µM was 109%.
The figure for `CCNC(=O)Nc1cc(-c2nc(C(F)(F)F)cs2)c(-c2ccc3c(=O)c(C(=O)NCCN4CCOCC4)cn(CC)c3c2)cn1` [Example 333, 1-Ethyl-7-{6-[(ethylcarbamoyl)amino]-4-[4-(trifluoromethyl)-1,3-thiazol-2-yl]pyridin-3-yl}-N-[2-(morpholin-4-yl)ethyl]-4-oxo-1,4-dihydroquinoline-3-carboxamide] is 106%; for `CCNC(=O)Nc1cc(-c2nc(C(F)(F)F)cs2)c(-c2ccc3c(=O)c(C(=O)NCCN4CCN(C)CC4)cn(CC)c3c2)cn1` [Example 334, 1-Ethyl-7-{6-[(ethylcarbamoyl)amino]-4-[4-(trifluoromethyl)-1,3-thiazol-2-yl]pyridin-3-yl}-N-[2-(4-methylpiperazin-1-yl)ethyl]-4-oxo-1,4-dihydroquinoline-3-carboxamide] it is 95%; for `CCNC(=O)Nc1cc(-c2nc(C(F)(F)F)cs2)c(-c2ccc3c(=O)c(C(=O)NC)cn(CCC(C)C)c3c2)cn1` [Example 335, 7-{6-[(ethylcarbamoyl)amino]-4-[4-(trifluoromethyl)-1,3-thiazol-2-yl]pyridin-3-yl}-N-methyl-1-(3-methylbutyl)-4-oxo-1,4-dihydroquinoline-3-carboxamide] it is 107%.
The same measure for `CCNC(=O)Nc1cc(-c2nc(C(F)(F)F)cs2)c(-c2ccc3c(=O)c(C(=O)NCCO)cn(CCC(C)C)c3c2)cn1` [Example 336, 7-{6-[(ethylcarbamoyl)amino]-4-[4-(trifluoromethyl)-1,3-thiazol-2-yl]pyridin-3-yl}-N-(2-hydroxyethyl)-1-(3-methylbutyl)-4-oxo-1,4-dihydroquinoline-3-carboxamide]: 109%.
The figure for `CCNC(=O)Nc1cc(-c2nc(C(F)(F)F)cs2)c(-c2ccc3c(=O)c(C(=O)NCCCO)cn(CCC(C)C)c3c2)cn1` [Example 337, 7-{6-[(ethylcarbamoyl)amino]-4-[4-(trifluoromethyl)-1,3-thiazol-2-yl]pyridin-3-yl}-N-(3-hydroxypropyl)-1-(3-methylbutyl)-4-oxo-1,4-dihydroquinoline-3-carboxamide] is 106%; for `CCNC(=O)Nc1cc(-c2nc(C(F)(F)F)cs2)c(-c2ccc3c(=O)c(C(=O)NCCN(C)C)cn(CCC(C)C)c3c2)cn1` [Example 338, N-[2-(dimethylamino)ethyl]-7-{6-[(ethylcarbamoyl)amino]-4-[4-(trifluoromethyl)-1,3-thiazol-2-yl]pyridin-3-yl}-1-(3-methylbutyl)-4-oxo-1,4-dihydroquinoline-3-carboxamide] it is 99%; for `CCNC(=O)Nc1cc(-c2nc(C(F)(F)F)cs2)c(-c2ccc3c(=O)c(C(=O)NCCN4CCOCC4)cn(CCC(C)C)c3c2)cn1` [Example 339, 7-{6-[(ethylcarbamoyl)amino]-4-[4-(trifluoromethyl)-1,3-thiazol-2-yl]pyridin-3-yl}-1-(3-methylbutyl)-N-[2-(morpholin-4-yl)ethyl]-4-oxo-1,4-dihydroquinoline-3-carboxamide] it is 109%.
Consider `CCNC(=O)Nc1cc(-c2nc(C(F)(F)F)cs2)c(-c2ccc3c(=O)c(C(=O)NCCN4CCN(C)CC4)cn(CCC(C)C)c3c2)cn1` [Example 340, 7-{6-[(ethylcarbamoyl)amino]-4-[4-(trifluoromethyl)-1,3-thiazol-2-yl]pyridin-3-yl}-1-(3-methylbutyl)-N-[2-(4-methylpiperazin-1-yl)ethyl]-4-oxo-1,4-dihydroquinoline-3-carboxamide], for which the inhibition at 1 µM stood at 93%.
